Assay results taken from BindingDB's records for doi:10.1021/jm9911229 (University of Ferrara, 2000).
Where a name gives a salt, the structure may show the parent alone.

Assay: Tested for 50% inhibition of generation of Human Ha-ras polymerase chain reaction(PCR) products

Structure (SMILES) | IC50
Cn1cc(NC(=O)c2cc(NC(=O)c3cc(NC(=O)c4cc5cc(NC(=O)c6ccc(N(CCCl)CCCl)cc6)ccc5n4C)cn3C)cn2C)cc1C(=O)NCCC(=N)N [5-{4-[Bis-(2-chloro-ethyl)-amino]-benzoylamino}-1-methyl-1H-indole-2-carboxylic acid (5-{5-[5-(2-carbamimidoyl-ethylcarbamoyl)-1-methyl-1H-pyrrol-3-ylcarbamoyl]-1-methyl-1H-pyrrol-3-ylcarbamoyl}-1-methyl-1H-pyrrol-3-yl)-amide; hydrochloride] | 15 nM
Cn1cc(NC(=O)c2cc(NC(=O)c3cc(NC(=O)c4cc5cc(NC(=O)c6ccc(N(CCCl)CCCl)cc6)ccc5[nH]4)cn3C)cn2C)cc1C(=O)NCCC(=N)N [5-{4-[Bis-(2-chloro-ethyl)-amino]-benzoylamino}-1H-indole-2-carboxylic acid (5-{5-[5-(2-carbamimidoyl-ethylcarbamoyl)-1-methyl-1H-pyrrol-3-ylcarbamoyl]-1-methyl-1H-pyrrol-3-ylcarbamoyl}-1-methyl-1H-pyrrol-3-yl)-amide; hydrochloride] | 15 nM
Cn1cc(NC(=O)c2cc(NC(=O)c3cc(NC(=O)c4cc5cc(NC(=O)c6ccc(N(CCCl)CCCl)cc6)ccc5o4)cn3C)cn2C)cc1C(=O)NCCC(=N)N [5-{4-[Bis-(2-chloro-ethyl)-amino]-benzoylamino}-benzofuran-2-carboxylic acid (5-{5-[5-(2-carbamimidoyl-ethylcarbamoyl)-1-methyl-1H-pyrrol-3-ylcarbamoyl]-1-methyl-1H-pyrrol-3-ylcarbamoyl}-1-methyl-1H-pyrrol-3-yl)-amide; hydrochloride] | 15 nM
Cn1cc(NC(=O)c2cc(NC(=O)c3cc(NC(=O)c4cc5cc(N(CCCl)CCCl)ccc5[nH]4)cn3C)cn2C)cc1C(=O)NCCC(=N)N [5-[Bis-(2-chloro-ethyl)-amino]-1H-indole-2-carboxylic acid (5-{5-[5-(2-carbamimidoyl-ethylcarbamoyl)-1-methyl-1H-pyrrol-3-ylcarbamoyl]-1-methyl-1H-pyrrol-3-ylcarbamoyl}-1-methyl-1H-pyrrol-3-yl)-amide; hydrochloride] | 20 nM
Cn1cc(NC(=O)c2cc(NC(=O)c3cc(NC(=O)c4cc5cc(N(CCCl)CCCl)ccc5o4)cn3C)cn2C)cc1C(=O)NCCC(=N)N [5-[Bis-(2-chloro-ethyl)-amino]-benzofuran-2-carboxylic acid (5-{5-[5-(2-carbamimidoyl-ethylcarbamoyl)-1-methyl-1H-pyrrol-3-ylcarbamoyl]-1-methyl-1H-pyrrol-3-ylcarbamoyl}-1-methyl-1H-pyrrol-3-yl)-amide; hydrochloride] | 15 nM
Cn1cc(NC(=O)c2cc(NC(=O)c3cc(NC(=O)c4cc5cc(N(CCCl)CCCl)ccc5n4C)cn3C)cn2C)cc1C(=O)NCCC(=N)N [5-[Bis-(2-chloro-ethyl)-amino]-1-methyl-1H-indole-2-carboxylic acid (5-{5-[5-(2-carbamimidoyl-ethylcarbamoyl)-1-methyl-1H-pyrrol-3-ylcarbamoyl]-1-methyl-1H-pyrrol-3-ylcarbamoyl}-1-methyl-1H-pyrrol-3-yl)-amide; hydrochloride] | 20 nM
Cn1cc(NC(=O)c2cc(NC(=O)c3cc(NC(=O)c4nc5ccc(NC(=O)c6ccc(N(CCCl)CCCl)cc6)cc5[nH]4)cn3C)cn2C)cc1C(=O)NCCC(=N)N [5-{4-[Bis-(2-chloro-ethyl)-amino]-benzoylamino}-1H-benzoimidazole-2-carboxylic acid (5-{5-[5-(2-carbamimidoyl-ethylcarbamoyl)-1-methyl-1H-pyrrol-3-ylcarbamoyl]-1-methyl-1H-pyrrol-3-ylcarbamoyl}-1-methyl-1H-pyrrol-3-yl)-amide; hydrochloride] | 15 nM
